Laboratory results taken from patent US11390604B2 (Hoffmann-La Roche Inc., priority 2019, dated 2022).
Counter-ions that a name gives are not always drawn.

Each compound was assayed on Acinetobacter baumannii ATCC 17961 (assay: Antimicrobial susceptibility testing: 90% growth inhibitory concentration (IC90) determination). Details: ATCC17961, Acinetobacter baumannii ATCC 17961, Iso-Sensitest broth, read-out: ATCC 17961 IC90.
Assay type: cell-based
Procedure, shortened: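 Growth was followed kinetically by OD600 at 20-min intervals for 16 h at 35±2 °C, with ~5×10^5 CFU/ml in Iso-Sensitest broth. Compounds were tested as twofold dilutions (e.g. 50–0.097 μM final). The concentration giving 90% inhibition of log-phase growth was reported.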

**Q.** `Cn1c(-c2cn(C3CCN(C4CC4)C3=O)nc2C(F)(F)F)cnc1C(=O)Nc1ccc(C(=O)N2CCN(C(=O)C3CCNCC3)CC2)c(Cl)c1` (stereo not drawn) [Example 26, N-(3-chloro-4-(4-(piperidine-4-carbonyl)piperazine-1-carbonyl)phenyl)-5-(1-(1-cyclopropyl-2-oxopyrrolidin-3-yl)-3-(trifluoromethyl)-1H-pyrazol-4-yl)-1-methyl-1H-imidazole-2-carboxamide formate] was tested. Which IC90 did it give?
**A.** Its IC90 is 1910 nM.

**Q.** `CC(C)Cn1cc(-c2cnc(C(=O)Nc3ccc(C(=O)N4CCN(C(=O)C5CCNCC5)CC4)c(Cl)c3)n2C)c(C(F)(F)F)n1` [Example 27, N-(3-chloro-4-(4-(piperidine-4-carbonyl)piperazine-1-carbonyl)phenyl)-5-(1-isobutyl-3-(trifluoromethyl)-1H-pyrazol-4-yl)-1-methyl-1H-imidazole-2-carboxamide] was tested. Which IC90 did it give?
**A.** Its IC90 is 531 nM.

**Q.** How did the IC90 turn out when `CNC(=O)Cn1cc(-c2cnc(C(=O)Nc3ccc(C(=O)N4CCN(C(=O)C5CCNCC5)CC4)c(Cl)c3)n2C)c(C(F)(F)F)n1` [Example 28, N-(3-chloro-4-(4-(piperidine-4-carbonyl)piperazine-l-carbonyl)phenyl)-1-methyl-5-(1-(2-(methylamino)-2-oxoethyl)-3-(trifluoromethyl)-1H-pyrazol-4-yl)-1H-imidazole-2-carboxamide formate] was run?
**A.** Its IC90 is 1490 nM.

**Q.** Which IC90 does the source give for `Cc1cc(NC(=O)c2ncc(-c3c[nH]nc3C(F)(F)F)n2C)ccc1C(=O)N1CCN(C(=O)C2CCNCC2)CC1` [Example 29, 1-Methyl-N-(3-methyl-4-(4-(piperidine-4-carbonyl)piperazine-1-carbonyl)phenyl)-5-(3-(trifluoromethyl)-1H-pyrazol-4-yl)-1H-imidazole-2-carboxamide dihydrochloride] here?
**A.** The IC90 was 1450 nM.

**Q.** `Cc1cc(NC(=O)c2ncc(-c3cn(CC#N)nc3C(F)(F)F)n2C)ccc1C(=O)N1CCN(C(=O)C2CCNCC2)CC1` [Example 30, 5-(1-(cyanomethyl)-3-(trifluoromethyl)-1H-pyrazol-4-yl)-1-methyl-N-(3-methyl-4-(4-(piperidine-4-carbonyl)piperazine-1-carbonyl)phenyl)-1H-imidazole-2-carboxamide] was tested. Which IC90 did it give?
**A.** Its IC90 is 867 nM.

**Q.** How did the IC90 turn out when `C#CCn1cc(-c2cnc(C(=O)Nc3ccc(C(=O)NC[C@@H]4CCNC4)c(Cl)c3)n2C)c(C(F)(F)F)n1` [Example 31, (R)—N-(3-Chloro-4-((pyrrolidin-3-ylmethyl)carbamoyl)phenyl)-1-methyl-5-(1-(prop-2-yn-1-yl)-3-(trifluoromethyl)-1H-pyrazol-4-yl)-1H-imidazole-2-carboxamide hydrochloride] was run?
**A.** The IC90 was 962 nM.

**Q.** `C#CCn1cc(-c2cnc(C(=O)Nc3ccc(C(=O)NC[C@H]4CCNC4)c(Cl)c3)n2C)c(C(F)(F)F)n1` [Example 32, (S)-N-(3-chloro-4-((pyrrolidin-3-ylmethyl)carbamoyl)phenyl)-1-methyl-5-(1-(prop-2-yn-1-yl)-3-(trifluoromethyl)-1H-pyrazol-4-yl)-1H-imidazole-2-carboxamide hydrochloride] was tested. Which IC90 did it give?
**A.** Its IC90 is 896 nM.

**Q.** Which IC90 does the source give for `C#CCn1cc(-c2cnc(C(=O)Nc3ccc(C(=O)NC[C@@H]4CNC[C@@H]4O)c(Cl)c3)n2C)c(C(F)(F)F)n1` [Example 33, N-(3-chloro-4-((((3S,4R)-4-hydroxypyrrolidin-3-yl)methyl)carbamoyl)phenyl)-1-methyl-5-(1-(prop-2-yn-1-yl)-3-(trifluoromethyl)-1H-pyrazol-4-yl)-1H-imidazole-2-carboxamide hydrochloride] here?
**A.** Its IC90 is 925 nM.

**Q.** `C#CCn1cc(-c2cnc(C(=O)Nc3ccc(C(=O)N4CCN(C(=O)OC(C)(C)C)CC4)c(Cl)c3)n2C)c(C(F)(F)F)n1` [Example 34, tert-butyl 4-[2-chloro-4-[[1-methyl-5-[1-prop-2-ynyl-3-(trifluoromethyl)pyrazol-4-yl]imidazole-2-carbonyl]amino]benzoyl]piperazine-1-carboxylate] was tested. Which IC90 did it give?
**A.** Its IC90 is 1060 nM.

**Q.** With `C#CCn1cc(-c2cnc(C(=O)Nc3ccc(C(=O)N4CCN(C(=O)[C@@H]5C[C@@H](O)CN5)CC4)c(Cl)c3)n2C)c(C(F)(F)F)n1` [Example 36, N-[3-Chloro-4-[4-[(2S,4R)-4-hydroxypyrrolidine-2-carbonyl]piperazine-1-carbonyl]phenyl]-1-methyl-5-[1-prop-2-ynyl-3-(trifluoromethyl)pyrazol-4-yl]imidazole-2-carboxamide hydrochloride] as the compound, how does the IC90 read?
**A.** The IC90 was 286 nM.

**Q.** With `C#CCn1cc(-c2cnc(C(=O)Nc3ccc(C(=O)N4CCN(C(=O)[C@H]5CCNC5)CC4)c(Cl)c3)n2C)c(C(F)(F)F)n1` [Example 37, N-[3-chloro-4-[4-[(3S)-pyrrolidine-3-carbonyl]piperazine-1-carbonyl]phenyl]-1-methyl-5-[1-prop-2-ynyl-3-(trifluoromethyl)pyrazol-4-yl]imidazole-2-carboxamide hydrochloride] as the compound, how does the IC90 read?
**A.** The IC90 was 233 nM.

**Q.** `C#CCn1cc(-c2cnc(C(=O)Nc3ccc(C(=O)N4CCN(C(=O)[C@H]5CCCN5)CC4)c(Cl)c3)n2C)c(C(F)(F)F)n1` [Example 38, N-[3-chloro-4-[4-[(2R)-pyrrolidine-2-carbonyl]piperazine-1-carbonyl]phenyl]-1-methyl-5-[1-prop-2-ynyl-3-(trifluoromethyl)pyrazol-4-yl]imidazole-2-carboxamide hydrochloride] was tested. Which IC90 did it give?
**A.** The IC90 was 275 nM.

**Q.** How did the IC90 turn out when `C#CCn1cc(-c2cnc(C(=O)Nc3ccc(C(=O)N4CCN(C(=O)C5(O)CCNCC5)CC4)c(Cl)c3)n2C)c(C(F)(F)F)n1` [Example 39, N-[3-chloro-4-[4-(4-hydroxypiperidine-4-carbonyl)piperazine-1-carbonyl]phenyl]-1-methyl-5-[1-prop-2-ynyl-3-(trifluoromethyl)pyrazol-4-yl]imidazole-2-carboxamide hydrochloride] was run?
**A.** Its IC90 is 257 nM.

**Q.** Which IC90 does the source give for `C#CCn1cc(-c2cnc(C(=O)Nc3ccc(C(=O)N4CCN(C(=O)[C@H]5CCNC[C@H]5O)CC4)c(Cl)c3)n2C)c(C(F)(F)F)n1` [Example 40, N-(3-chloro-4-(4-((3S,4S)-3-hydroxypiperidine-4-carbonyl)piperazine-1-carbonyl)phenyl)-1-methyl-5-(1-(prop-2-yn-1-yl)-3-(trifluoromethyl)-1H-pyrazol-4-yl)-1H-imidazole-2-carboxamide hydrochloride] here?
**A.** Its IC90 is 241 nM.

**Q.** Which IC90 does the source give for `C#CCn1cc(-c2cnc(C(=O)Nc3ccc(C(N)=O)c(Cl)c3)n2C)c(C(F)(F)F)n1` [Example 41, N-(4-Carbamoyl-3-chlorophenyl)-1-methyl-5-(1-(prop-2-yn-1-yl)-3-(trifluoromethyl)-11-pyrazol-4-yl)-1H-imidazole-2-carboxamide] here?
**A.** The IC90 was 801 nM.

**Q.** Which IC90 does the source give for `C#CCn1cc(-c2cnc(C(=O)Nc3ccc(C(=O)N(C)C)c(Cl)c3)n2C)c(C(F)(F)F)n1` [Example 42, N-(3-chloro-4-(dimethylcarbamoyl)phenyl)-1-methyl-5-(1-(prop-2-yn-1-yl)-3-(trifluoromethyl)-1H-pyrazol-4-yl)-1H-imidazole-2-carboxamide] here?
**A.** Its IC90 is 241 nM.

**Q.** How did the IC90 turn out when `C#CCn1cc(-c2cnc(C(=O)Nc3ccc(C(=O)NC)c(Cl)c3)n2C)c(C(F)(F)F)n1` [Example 43, N-(3-chloro-4-(methylcarbamoyl)phenyl)-1-methyl-5-(1-(prop-2-yn-1-yl)-3-(trifluoromethyl)-1H-pyrazol-4-yl)-1H-imidazole-2-carboxamide] was run?
**A.** Its IC90 is 478 nM.

**Q.** `C#CCn1cc(-c2cnc(C(=O)Nc3ccc(C(=O)NCCCN)c(Cl)c3)n2C)c(C(F)(F)F)n1` [Example 44, N-(4-((3-aminopropyl)carbamoyl)-3-chlorophenyl)-1-methyl-5-(1-(prop-2-yn-1-yl)-3-(trifluoromethyl)-1H-pyrazol-4-yl)-1H-imidazole-2-carboxamide 2,2,2-trifluoroacetate] was tested. Which IC90 did it give?
**A.** Its IC90 is 556 nM.

**Q.** How did the IC90 turn out when `C#CCn1cc(-c2cnc(C(=O)Nc3ccc(C(=O)NCCOC[C@@H](C)N)c(Cl)c3)n2C)c(C(F)(F)F)n1` [Example 45, (R)-N-(4-((2-(2-aminopropoxy)ethyl)carbamoyl)-3-chlorophenyl)-1-methyl-5-(1-(prop-2-yn-1-yl)-3-(trifluoromethyl)-1H-pyrazol-4-yl)-1H-imidazole-2-carboxamide 2,2,2-trifluoroacetate] was run?
**A.** The IC90 was 262 nM.

**Q.** How did the IC90 turn out when `C#CCn1cc(-c2cnc(C(=O)Nc3ccc(C(=O)NCCOCC(C)(C)N)c(Cl)c3)n2C)c(C(F)(F)F)n1` [Example 46, N-(4-((2-(2-amino-2-methylpropoxy)ethyl)carbamoyl)-3-chlorophenyl)-1-methyl-5-(1-(prop-2-yn-1-yl)-3-(trifluoromethyl)-1H-pyrazol-4-yl)-1H-imidazole-2-carboxamide 2,2,2-trifluoroacetate] was run?
**A.** The IC90 was 263 nM.

**Q.** How did the IC90 turn out when `C#CCn1cc(-c2cnc(C(=O)Nc3ccc(C(=O)NCCOC[C@H](C)N)c(Cl)c3)n2C)c(C(F)(F)F)n1` [Example 47, (S)-N-(4-((2-(2-aminopropoxy)ethyl)carbamoyl)-3-chlorophenyl)-1-methyl-5-(1-(prop-2-yn-1-yl)-3-(trifluoromethyl)-1H-pyrazol-4-yl)-1H-imidazole-2-carboxamide 2,2,2-trifluoroacetate] was run?
**A.** Its IC90 is 428 nM.

**Q.** For `C#CCn1cc(-c2cnc(C(=O)Nc3ccc(C(=O)NCCOCCN)c(Cl)c3)n2C)c(C(F)(F)F)n1` [Example 48, N-(4-((2-(2-aminoethoxy)ethyl)carbamoyl)-3-chlorophenyl)-1-methyl-5-(1-(prop-2-yn-1-yl)-3-(trifluoromethyl)-1H-pyrazol-4-yl)-1H-imidazole-2-carboxamide trifluoroacetate], which IC90 is on record?
**A.** Its IC90 is 231 nM.

**Q.** For `Cc1cc(NC(=O)c2ncc(-c3c[nH]nc3C(F)(F)F)n2C)ccc1C(=O)NCCCCCCN` [Example 49, N-(4-((6-aminohexyl)carbamoyl)-3-methylphenyl)-1-methyl-5-(3-(trifluoromethyl)-1H-pyrazol-4-yl)-1H-imidazole-2-carboxamide hydrochloride], which IC90 is on record?
**A.** Its IC90 is 2830 nM.

Same assay, conditions: Acinetobacter baumannii, ATCC17961, read-out: ATCC 17961 IC90, Acinetobacter baumannii ATCC 17961, Iso-Sensitest broth

**Q.** Which IC90 does the source give for `Cn1c(-c2c[nH]nc2C(F)(F)F)cnc1C(=O)Nc1ccc(C(=O)N2CCNCC2)c(Cl)c1` [Example 35, N-[3-chloro-4-(piperazine-1-carbonyl)phenyl]-1-methyl-5-[3-(trifluoromethyl)-1H-pyrazol-4-yl]imidazole-2-carboxamide hydrochloride] here?
**A.** The IC90 was 3700 nM.
